Source: the supplement of paper PMC11061612

How the values were obtained:
Experiment in all cases: combination Emax (second highest fraction inhibited in the dose matrix, 72 h); higher = more inhibition; extreme values may be limits of the assay
[1] = test system: 697 (B-Lymphoblastic Leukemia)
Procedure, shortened: (§1)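 Bliss excess equals the observed combination effect minus the expected value EA + EB − EA·EB, where EA and EB are the effects of each agent alone. Combination Emax is the second-highest inhibition within the matrix. Inhibition was scaled from CellTiter-Glo 2.0 luminescence, with 0 set by vehicle wells and 1 by blank wells, after 72 hours of two-drug dosing of cells plated in 1536-well plates.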

[2] = test system: CFPAC-1 (Pancreatic Carcinoma)
Procedure, shortened: as §1

[3] = test system: DOV13 (Ovarian Carcinoma)
Procedure, shortened: as §1

[4] = test system: ES7 (Ewing's Sarcoma)
Procedure, shortened: as §1

[5] = test system: G-292-Clone-A141B1 (Osteosarcoma)
Procedure, shortened: as §1

[6] = test system: HCC2157 (Breast Carcinoma)
Procedure, shortened: as §1

[7] = test system: IGR-1 (Melanoma)
Procedure, shortened: as §1

[8] = test system: IHH-4 (Thyroid Gland Carcinoma)
Procedure, shortened: as §1

[9] = test system: KARPAS-1106P (B-Cell Non-Hodgkin's Lymphoma)
Procedure, shortened: as §1

[10] = test system: KARPAS-620 (Plasma Cell Myeloma)
Procedure, shortened: as §1

[11] = test system: LS-513 (Colorectal Carcinoma)
Procedure, shortened: as §1

[12] = test system: LU-99A (Non-Small Cell Lung Carcinoma)
Procedure, shortened: as §1

[13] = test system: NCI-H1793 (Lung Adenocarcinoma)
Procedure, shortened: as §1

[14] = test system: NCI-H2369 (Mesothelioma)
Procedure, shortened: as §1

[15] = test system: RH-1 (Ewing's Sarcoma)
Procedure, shortened: as §1

[16] = test system: SN12C (Kidney Carcinoma)
Procedure, shortened: as §1

[17] = test system: SUIT-2 (Pancreatic Carcinoma)
Procedure, shortened: as §1

[18] = test system: SW1088 (Low Grade Glioma)
Procedure, shortened: as §1

[19] = test system: SW780 (Bladder Carcinoma)
Procedure, shortened: as §1

[20] = test system: TGBC24TKB (Biliary Tract Carcinoma)
Procedure, shortened: as §1

SMILES | combination Emax [1] | combination Emax [2] | combination Emax [3] | combination Emax [4] | combination Emax [5] | combination Emax [6] | combination Emax [7] | combination Emax [8] | combination Emax [9] | combination Emax [10] | combination Emax [11] | combination Emax [12] | combination Emax [13] | combination Emax [14] | combination Emax [15] | combination Emax [16] | combination Emax [17] | combination Emax [18] | combination Emax [19] | combination Emax [20]
COc1cccc(OCCCN)c1-c1cc(Nc2cnc(C#N)cn2)n[nH]1 [Prexasertib] + C[C@@H]1COCCN1C2=NC(=NC(=C2)C3(CC3)[S@](=N)(=O)C)C4=C5C=CNC5=NC=C4 [AZD6738] (first compound max 1 µM, 7x7, partner max 10 µM) | 1 | 0.643 | 0.945 | 0.855 | 0.325 | 0.971 | 0.566 | 0.862 | 0.905 | 0.856 | 0.8 | 0.767 | 0.423 | 0.192 | 1 | 0.313 | 0.747 | 0.762 | 0.201 | 0.918
CC1(C)CCC(CN2CCN(c3ccc(C(=O)NS(=O)(=O)c4ccc(NCC5CCOCC5)c([N+](=O)[O-])c4)c(Oc4cnc5[nH]ccc5c4)c3)CC2)=C(c2ccc(Cl)cc2)C1 [Venetoclax] + COc1cc(Nc2ncc3c(n2)-c2ccc(Cl)cc2C(c2c(F)cccc2OC)=NC3)ccc1C(=O)O [Alisertib] (first compound max 1 µM, 7x7, partner max 10 µM) | 1 | 0.402 | 0.693 | 0.917 | 0.484 | 0.877 | 0.403 | 0.411 | 0.713 | 1 | 0.55 | 0.44 | 0.612 | 0.327 | 1 | 0.318 | 0.106 | 0.679 | 0.534 | 0.638
COc1cc2c(cc1OCCCCCOc1cc3c(cc1OC)C(=O)N1C=C(C)C[C@H]1C=N3)N=C[C@@H]1CC(C)=CN1C2=O [SG3199] + O=C(c1cc(Cc2n[nH]c(=O)c3ccccc23)ccc1F)N1CCN(C(=O)C2CC2)CC1 [Olaparib] (first compound max 0.001 µM, 7x7, partner max 10 µM) | 0.984 | 0.175 | 0.249 | 0.832 | 0.145 | 0.264 | 0.187 | 0.193 | 0.467 | 0.139 | 0.155 | 0.356 | 0.138 | 0.0848 | 0.189 | 0.172 | 0.187 | 0.151 | 0.128 | 0.126
CC1(C)CCC(CN2CCN(c3ccc(C(=O)NS(=O)(=O)c4ccc(NCC5CCOCC5)c([N+](=O)[O-])c4)c(Oc4cnc5[nH]ccc5c4)c3)CC2)=C(c2ccc(Cl)cc2)C1 [Venetoclax] + CN(C)CCCOc1ccc(-c2ccc3ncc4c(c3c2)n(C2CCOCC2)c(=O)n4C)cn1 [AZD0156] (first compound max 1 µM, 7x7, partner max 1 µM) | 0.988 | 0.342 | 0.326 | 0.925 | 0.273 | 0.377 | 0.211 | 0.129 | 0.552 | 0.989 | 0.316 | 0.16 | 0.248 | 0.194 | 0.221 | 0.249 | 0.207 | 0.238 | 0.212 | 0.268
CN(CCO)CC[C@H](CSc1ccccc1)Nc1ccc(S(=O)(=O)NC(=O)c2ccc(N3CCC([C@@H](O)c4ccccc4-c4ccc(Cl)cc4)CC3)cc2)cc1S(=O)(=O)C(F)(F)F [AZD4320] + C=CCn1c(=O)c2cnc(Nc3ccc(N4CCN(C)CC4)cc3)nc2n1-c1cccc(C(C)(C)O)n1 [AZD1775] (first compound max 1 µM, partner max 1 µM) | 1 | 0.699 | 0.999 | 0.935 | 0.559 | 0.969 | 0.934 | 0.694 | 0.963 | 1 | 0.866 | 0.762 | 0.449 | 0.189 | 0.986 | 0.322 | 0.491 | 0.391 | 0.457 | 0.682
CC1(C)CCC(CN2CCN(c3ccc(C(=O)NS(=O)(=O)c4ccc(NCC5CCOCC5)c([N+](=O)[O-])c4)c(Oc4cnc5[nH]ccc5c4)c3)CC2)=C(c2ccc(Cl)cc2)C1 [Venetoclax] + C[C@@H](Nc1cc(F)cc(F)c1)c1cc(C(=O)N(C)C)cc2c(=O)cc(N3CCOCC3)oc12 [AZD8186] (first compound max 1 µM, 7x7, partner max 3 µM) | 0.986 | 0.255 | 0.306 | 0.904 | 0.296 | 0.919 | 0.0327 | 0.22 | 0.796 | 1 | 0.491 | 0.234 | 0.221 | 0.107 | 0.0877 | 0.174 | 0.0137 | 0.493 | 0.163 | 0.169
COc1cc2ncnc(Nc3ccc(F)c(Cl)c3)c2cc1OCCCN1CCOCC1 [Gefitinib] + CC(C)n1c(=O)n(C)c2cnc3cc(F)c(-c4ccc(OCCCN5CCCCC5)nc4)cc3c21 [AZD1390] (first compound max 10 µM, 7x7, partner max 0.3 µM) | 0.422 | 0.304 | 0.168 | 0.385 | 0.0339 | 0.723 | 0.635 | 0.0356 | 0.267 | 0.141 | 0.354 | 0.154 | 0.143 | 0.0747 | 0.188 | 0.21 | 0.111 | 0.108 | 0.14 | 0.348
CCN(CCO)CCCOc1ccc2c(Nc3cc(CC(=O)Nc4cccc(F)c4)[nH]n3)ncnc2c1 [AZD2811] + C[C@@H]1COCCN1C2=NC(=NC(=C2)C3(CC3)[S@](=N)(=O)C)C4=C5C=CNC5=NC=C4 [AZD6738] (first compound max 1 µM, 7x7, partner max 10 µM) | 1 | 0.399 | 0.873 | 0.865 | 0.263 | 0.918 | 0.374 | 0.763 | 0.711 | 0.59 | 0.746 | 0.659 | 0.327 | 0.178 | 1 | 0.212 | 0.575 | 0.566 | 0.334 | 0.746
CN(CCO)CC[C@H](CSc1ccccc1)Nc1ccc(S(=O)(=O)NC(=O)c2ccc(N3CCC([C@@H](O)c4ccccc4-c4ccc(Cl)cc4)CC3)cc2)cc1S(=O)(=O)C(F)(F)F [AZD4320] + CN(C)CCCOc1ccc(-c2ccc3ncc4c(c3c2)n(C2CCOCC2)c(=O)n4C)cn1 [AZD0156] (first compound max 1 µM, 7x7, partner max 1 µM) | 1 | 0.115 | 0.731 | 0.747 | 0.647 | 0.936 | 0.342 | 0.224 | 0.146 | 1 | 0.2 | 0.292 | 0.253 | 0.0933 | 0.359 | 0.169 | 0.0928 | 0.164 | 0.521 | 0.598
Cn1cnc2c(F)c(Nc3ccc(Br)cc3Cl)c(C(=O)NOCCO)cc21 [Selumetinib] + CCN(CCO)CCCOc1ccc2c(Nc3cc(CC(=O)Nc4cccc(F)c4)[nH]n3)ncnc2c1 [AZD2811] (first compound max 10 µM, 7x7, partner max 1 µM) | 1 | 0.292 | 0.4 | 0.792 | 0.102 | 0.628 | 0.393 | 0.586 | 0.297 | 0.87 | 0.85 | 0.453 | 0.203 | 0.203 | 0.935 | 0.237 | 0.349 | 0.424 | 0.435 | 0.551
Cc1c2c(nn1C)CSCc1cc(n(C)n1)CSc1cc(c3ccccc3c1)OCCCc1c(C(=O)O)n(C)c3c-2c(Cl)ccc13 [AZD5991] + C[C@@H]1COCCN1C2=NC(=NC(=C2)C3(CC3)[S@](=N)(=O)C)C4=C5C=CNC5=NC=C4 [AZD6738] (first compound max 1 µM, 7x7, partner max 10 µM) | 1 | 0.555 | 0.926 | 0.852 | 0.281 | 0.998 | 0.852 | 0.709 | 0.965 | 1 | 0.752 | 0.572 | 0.488 | 0.247 | 0.956 | 0.228 | 0.424 | 0.565 | 0.255 | 0.672
CC(=O)Nc1cccc(-n2c(=O)n(C3CC3)c(=O)c3c(Nc4ccc(I)cc4F)n(C)c(=O)c(C)c32)c1 [Trametinib] + Cc1nc(-c2cn3c(n2)-c2ccc(-c4cnn(C(C)(C)C(N)=O)c4)cc2OCC3)n(C(C)C)n1 [Taselisib] (first compound max 1 µM, 7x7, partner max 10 µM) | 0.653 | 0.826 | 0.76 | 0.673 | 0.921 | 1 | 0.759 | 0.78 | 0.749 | 1 | 1 | 0.984 | 0.778 | 0.294 | 0.594 | 0.45 | 0.702 | 0.696 | 0.541 | 0.969
